Here are results for 22 compounds from patent US12527779B2, “Prostaglandin E2 (PGE2) EP4 receptor antagonists” (Domain Therapeutics, priority 2019, dated 2026).

This test has as its target T1, human EP4 (hEP4) receptor (Homo sapiens, UniProt P35408).
T1 construct: expressed in transfected cells; host or cells: HEK-293 T cells, transient co-transfection with polyethylenimine
The test is described as follows: In vitro human EP4 functional antagonist activity using BRET biosensors (cAMP EPAC biosensor, TCS2510 stimulation). It counts as cell-based. Particulars: antagonist activity vs EC60 TCS2510, hEP4 in HEK-293 T cells. The essentials:
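Antagonism measured as inhibition of EC60 TCS2510-induced cAMP BRET signal (EPAC luciferase/GFP sensor) in transiently hEP4-expressing HEK-293T cells, following 5 min compound preincubation and 10 min luminescence recording. Plates equilibrated 1 h at 22 °C in HEPES buffer; 10 concentrations over 4.5 logs, duplicate in two independent experiments, sigmoidal variable-slope IC50.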
(In general: Bioluminescence resonance energy transfer reports proximity on the nanometre scale.)

As a reminder, the IC50 is the concentration needed to halve the response being measured. A low value points to inhibition by little substance.

Structures can show the parent of a compound that is named as a salt. Bounds are passed on as bounds.

T1 sequence (P35408 whole entry): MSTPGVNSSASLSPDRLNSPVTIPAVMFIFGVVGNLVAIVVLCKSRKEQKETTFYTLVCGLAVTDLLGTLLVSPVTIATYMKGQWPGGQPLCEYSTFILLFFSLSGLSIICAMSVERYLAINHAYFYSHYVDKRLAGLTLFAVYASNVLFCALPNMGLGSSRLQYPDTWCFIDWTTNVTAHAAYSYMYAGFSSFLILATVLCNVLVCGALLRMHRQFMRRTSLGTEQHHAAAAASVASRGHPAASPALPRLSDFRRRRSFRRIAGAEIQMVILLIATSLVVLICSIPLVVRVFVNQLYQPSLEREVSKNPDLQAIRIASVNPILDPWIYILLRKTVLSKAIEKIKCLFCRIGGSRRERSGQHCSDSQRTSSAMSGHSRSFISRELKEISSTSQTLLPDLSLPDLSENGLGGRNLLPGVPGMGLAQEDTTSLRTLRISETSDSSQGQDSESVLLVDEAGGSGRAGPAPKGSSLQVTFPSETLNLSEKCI

`C[C@H](NC(=O)C1(c2ccc(OCC3CCCCC3)nc2)CCCC1)c1ccc(C(=O)O)cc1` [Example 129, 4-[(1S)-1-[[1-[6-(Cyclohexylmethoxy)-3-pyridyl]cyclopentanecarbonyl]amino]ethyl]benzoic acid]: the IC50 is < 100 nM.
As to `O=C(NC[C@H]1CC[C@H](C(=O)O)CC1)C1(N2CC[C@@H](Oc3cccc(C(F)(F)F)c3)C2)CCOCC1` [Example 200, (1R,4R)-4-((4-((R)-3-(3-(Trifluoromethyl)phenoxy)pyrrolidin-1-yl)tetrahydro-2H-pyran-4-carboxamido)methyl)cyclohexane-1-carboxylic acid, hydrochloride], the IC50 is < 100 nM.
Regarding `C[C@H](NC(=O)C1(N2CC[C@@H](Oc3cccc(Cl)c3)C2)CCCC1)c1ccc(C(=O)O)cc1` [Example 157, 4-[(1S)-1-[[1-[(3R)-3-(3-Chlorophenoxy)pyrrolidin-1-yl]cyclopentane-1-carbonyl]amino]ethyl]benzoic acid, hydrochloride], the IC50 is < 100 nM.
Then `C[C@H](NC(=O)C1(c2ccc(OCCC3CCCCC3)cc2)CCCC1)c1ccc(C(=O)O)cc1` [Example 110, 4-[(1S)-1-[[1-[4-(2-Cyclohexylethoxy)phenyl]cyclopentanecarbonyl]amino]ethyl]benzoic acid], with < 100 nM.
As for `Cc1cccc(O[C@@H]2CCN(C3(C(=O)NC4(c5ccc(C(=O)O)cc5)CC4)CCOCC3)C2)c1` [Example 151, 4-[1-[[4-[(3R)-3-(3-Methylphenoxy)pyrrolidin-1-yl]tetrahydropyran-4-carbonyl]amino]cyclopropyl]benzoic acid, hydrochloride], the IC50 was < 100 nM.
The figure for `C[C@H](NC(=O)C1(c2cccc(OCC3CCCCC3)c2)CCOCC1)c1ccc(C(=O)O)cc1` [Example 97, 4-[(1S)-1-[[4-[3-(Cyclohexylmethoxy)phenyl]tetrahydropyran-4-carbonyl]amino]ethyl]benzoic acid] is < 1000 nM.
Take `O=C(O)c1ccc(C2(NC(=O)C3(NCCOc4ccccc4)CCOCC3)CC2)cc1` [Example 24, 4-[1-[[4-(2-Phenoxyethylamino)tetrahydropyran-4-carbonyl]amino]cyclopropyl]benzoic acid, hydrochloride]: the half-maximal inhibitory concentration (IC50) was < 1000 nM.
Then `O=C(O)c1ccc(C2(NC(=O)C3(N4CC[C@@H](Oc5cccc(F)c5)C4)CCOCC3)CC2)cc1` [Example 143, 4-[1-[[4-[(3R)-3-(3-Fluorophenoxy)pyrrolidin-1-yl]tetrahydropyran-4-carbonyl]amino]cyclopropyl]benzoic acid, hydrochloride], with < 100 nM.
Then `C[C@H](NC(=O)C1(NCCOc2ccccc2)CCSCC1)c1ccc(C(=O)O)cc1` [Example 66, 4-[(1S)-1-[[4-(2-Phenoxyethylamino)tetrahydrothiopyran-4-carbonyl]amino]ethyl]benzoic acid], with < 100 nM; and `C[C@H](NC(=O)C1(N2CC[C@@H](Oc3cccc(Cl)c3)C2)CCC(F)(F)CC1)c1ccc(C(=O)O)cc1` [Example 156, 4-[(1S)-1-[[1-[(3R)-3-(3-Chlorophenoxy)pyrrolidin-1-yl]-4,4-difluorocyclohexane-1-carbonyl]amino]ethyl]benzoic acid, hydrochloride], with < 100 nM.
Turning to `C[C@H](NC(=O)C(C)(C)N1CC[C@@H](Oc2cccc(Cl)c2)C1)c1ccc(C(=O)O)cc1` [Example 161, hydrochloride], the IC50 was < 100 nM.
As for `Cc1cc(C2(NC(=O)C3(N4CC[C@@H](Oc5cccc(C(F)(F)F)c5)C4)CCOCC3)CC2)ccc1C(=O)O` [Example 198, (R)-2-Methyl-4-(1-(4-(3-(3-(trifluoromethyl)phenoxy)pyrrolidin-1-yl)tetrahydro-2H-pyran-4-carboxamido)cyclopropyl)benzoic acid, hydrochloride], the IC50 is < 100 nM.
Regarding `O=C(O)c1ccc(C2(NC(=O)C3(N4CC[C@@H](Oc5cccc(Cl)c5)C4)CCOCC3)CC2)cc1` [Example 141, 4-[1-[[4-[(3R)-3-(3-Chlorophenoxy)pyrrolidin-1-yl]tetrahydropyran-4-carbonyl]amino]cyclopropyl]benzoic acid, hydrochloride], the IC50 was < 100 nM.
Regarding `C[C@H](NC(=O)C1(c2ccc(OCC3CCCCC3)cn2)CCOCC1)c1ccc(C(=O)O)cc1` [Example 119, 4-[(1S)-1-[[4-[5-(Cyclohexylmethoxy)-2-pyridyl]tetrahydropyran-4-carbonyl]amino]ethyl]benzoic acid], the IC50 is < 1000 nM.
In the case of `C[C@H](NC(=O)C1(N2CC[C@@H](Oc3cccc(Cl)c3)C2)CC1)c1ccc(C(=O)O)cc1` [Example 160, 4-[(1S)-1-[[1-[(3R)-3-(3-Chlorophenoxy)pyrrolidin-1-yl]cyclopropane-1-carbonyl]amino]ethyl]benzoic acid, hydrochloride], the IC50 was < 100 nM.
`C[C@H](NC(=O)C1(N2CC[C@@H](Oc3cccc(C(F)(F)F)c3)C2)CCOCC1)c1ccncc1` [Example 184, N—((S)-1-(Pyridin-4-yl)ethyl)-4-((R)-3-(3-(trifluoromethyl)phenoxy)pyrrolidin-1-yl)tetrahydro-2H-pyran-4-carboxamide, hydrochloride]: the IC50 is < 1000 nM.
Take `C[C@H](NC(=O)C1(N(C)CCOc2cccc(Cl)c2)CCCCC1)c1ccc(C(=O)O)cc1` [Example 57, 4-[(1S)-1-[[1-[2-(3-Chlorophenoxy)ethyl-methyl-amino]cyclohexanecarbonyl]amino]ethyl]benzoic acid, hydrochloride]: the IC50 is < 100 nM.
Then `C[C@H](NC(=O)C1(c2cccc(OCC3CCCCC3)n2)CCCC1)c1ccc(C(=O)O)cc1` [Example 123, 4-[(1S)-1-[[1-[6-(Cyclohexylmethoxy)-2-pyridyl]cyclopentanecarbonyl]amino]ethyl]benzoic acid], with < 1000 nM.
In the case of `C[C@H](NC(=O)C1(N2CC[C@@H](Oc3cccc(C(F)(F)F)c3)C2)CCOCC1)c1ccccc1F` [Example 189, N—((S)-1-(2-Fluorophenyl)ethyl)-4-((R)-3-(3-(trifluoromethyl)phenoxy)pyrrolidin-1-yl)tetrahydro-2H-pyran-4-carboxamide, hydrochloride], the IC50 is < 1000 nM.
Consider `C[C@H](NC(=O)C1(N2CC[C@@H](Oc3cccc(OC(F)(F)F)c3)C2)CCOCC1)c1ccc(C(=O)O)cc1` [Example 146, 4-[(1S)-1-[[4-[(3R)-3-[3-(Trifluoromethoxy)phenoxy]pyrrolidin-1-yl]tetrahydropyran-4-carbonyl]amino]ethyl]benzoic acid, hydrochloride], for which the IC50 was < 100 nM.
As to `C[C@H](NC(=O)C1(c2ccc(OCCCc3ccccc3)cc2)CCOCC1)c1ccc(C(=O)O)cc1` [Example 92, 4-[(1S)-1-[[4-[4-(3-Phenylpropoxy)phenyl]tetrahydropyran-4-carbonyl]amino]ethyl]benzoic acid], the IC50 was < 100 nM.
In the case of `C[C@H](NC(=O)C1(CCCOc2ccccc2)CCOCC1)c1ccc(C(=O)O)cc1` [Example 81, 4-[(1S)-1-[[4-(3-Phenoxypropyl)tetrahydropyran-4-carbonyl]amino]ethy]benzoic Acid], the IC50 is < 100 nM.
